Data set [1] has as its target T1, AChE (Electrophorus electricus, UniProt O42275). The note with it: read-out: Ki AChE; morpholine-based chalcones; cited from earlier work.
For data set [2], the target named is T2, MAO-B (Homo sapiens, UniProt P27338).
T2 construct: purchased Sigma Aldrich
T2 sequence (P27338 1-520): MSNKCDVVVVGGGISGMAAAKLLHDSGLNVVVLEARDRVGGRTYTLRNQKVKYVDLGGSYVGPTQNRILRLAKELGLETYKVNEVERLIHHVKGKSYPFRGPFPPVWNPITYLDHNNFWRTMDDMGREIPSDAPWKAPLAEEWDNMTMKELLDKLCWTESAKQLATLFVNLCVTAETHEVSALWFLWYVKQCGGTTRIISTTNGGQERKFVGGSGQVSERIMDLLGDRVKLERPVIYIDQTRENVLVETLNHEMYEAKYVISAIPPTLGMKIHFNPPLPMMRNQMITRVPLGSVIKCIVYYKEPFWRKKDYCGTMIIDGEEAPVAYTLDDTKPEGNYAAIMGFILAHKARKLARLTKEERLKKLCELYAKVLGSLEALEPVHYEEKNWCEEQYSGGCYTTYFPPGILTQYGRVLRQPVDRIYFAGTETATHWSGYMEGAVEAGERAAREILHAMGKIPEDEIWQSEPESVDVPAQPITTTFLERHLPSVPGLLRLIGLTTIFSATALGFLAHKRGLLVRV
The following applies: MAO-B selectivity over MAO-A; cited from earlier work.

Data set [3] addresses T2, MAO-B. Kind of data set: Reversibility test for MAO-B using dialysis method. The note with it: for Residual activity of MAO-B after dialysis: after dialysis for 6 h, inhibitor at ~2 × IC50. It counts as biochemical. As to the method:
Reversibility of the compounds for MAO-B was measured using the dialysis method. […] The reaction mixture was placed in a dialysis tube (DiaEasyTM Dialyzer (800 µL) MWCO 6–8 kDa, Biovision, CA, USA) and dialyzed for 6 h. After that, the 0.3 mM of benzylamine was added into the reaction mixture for measuring enzyme activity. The relative activity to the control (without inhibitors) before and after dialysis was calculated, respectively.

A further data set has as its target T3, MAO-A (Homo sapiens, UniProt P21397).
T3 construct: purchased Sigma Aldrich
T3 sequence (P21397 1-527): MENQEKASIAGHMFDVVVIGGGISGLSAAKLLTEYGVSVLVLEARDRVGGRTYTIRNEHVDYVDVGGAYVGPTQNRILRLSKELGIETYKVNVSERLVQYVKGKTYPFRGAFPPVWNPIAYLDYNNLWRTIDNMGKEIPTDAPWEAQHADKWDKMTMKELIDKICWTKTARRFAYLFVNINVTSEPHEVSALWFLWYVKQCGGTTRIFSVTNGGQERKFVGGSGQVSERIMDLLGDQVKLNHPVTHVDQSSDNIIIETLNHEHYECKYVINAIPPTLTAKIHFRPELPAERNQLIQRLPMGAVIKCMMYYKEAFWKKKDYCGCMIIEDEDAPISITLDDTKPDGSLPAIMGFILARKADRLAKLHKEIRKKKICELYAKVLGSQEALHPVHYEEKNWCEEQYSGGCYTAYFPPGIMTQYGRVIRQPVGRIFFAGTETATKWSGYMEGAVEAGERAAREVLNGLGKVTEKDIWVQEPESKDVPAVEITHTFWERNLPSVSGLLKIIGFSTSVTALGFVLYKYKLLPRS
The data set can be described thus: MAO-A enzyme inhibition assay (kynuramine substrate). The format is biochemical. The following applies: mean ± SD; for remaining activity at 10 µM: read-out: Residual Activities at 10 μM (%) MAO-A. The method, then:
(§1) MAO assays were performed as described previously, i.e., ~0.09 U/mL of MAO-A and MAO-B were reacted with 0.06 mM kynuramine and 0.3 mM benzylamine, respectively, in 50 mM sodium phosphate (pH 7.2). […] For inhibition assay, the compounds were dissolved in DMSO and added into the reaction mixture. The final concentration of DMSO in the reaction mixture was less than 1% to avoid solvent disturbance.

The target in data set [4] is T2, MAO-B. The data set can be described thus: MAO-B enzyme inhibition assay (benzylamine substrate). It counts as biochemical. The following applies: for remaining activity at 10 µM: 10 μM compound, read-out: Residual Activities at 10 μM (%) MAO-B; for remaining activity at 10 µM / IC50: mean ± SD; for SI (MAO): MAO-B selectivity over MAO-A, based on IC50 values. The method, then: as §1

In data set [5] the target is T1, AChE. The data set can be described thus: AChE inhibition assay (Ellman method, ATCI). The format is biochemical. The following applies: for remaining activity at 10 µM: 10 μM compound, read-out: Residual Activities at 10 μM (%) AChE; for SI (ChE): AChE selectivity over BChE, based on IC50 values. As to the method:
(§2) For measuring cholinesterase (ChE) activity, the Ellman method was employed with a slight modification. The AChE and BchE with ~0.02 U/mL were reacted with 0.5 mM ATCI and BTCI, respectively, followed by addition of 0.5 mM DTNB. […] In the inhibition assay, the enzyme and the compound were preincubated in reaction buffer for 15 min, followed by adding substrates and DTNB.

A further data set concerns the target BChE (Equus caballus, UniProt P81908). Kind of data set: biochemical. The following applies: for remaining activity at 10 µM: read-out: Residual Activities at 10 μM (%) BChE. As to the method:
as §2

Data set [6] concerns the target T1, AChE. Kind of data set: AChE inhibition kinetics (Lineweaver–Burk and secondary plots). The format is biochemical.
Data set [7] is described as follows: Cytotoxicity MTT assay on normal Vero cells. The following applies: African green monkey. The method, then: The reference compound staurosporine was purchased from Sigma-Aldrich (Saint Louis, MO, USA). […] CellTiter 96® Non-Radioactive Cell Proliferation Assay (MTT) reagent was purchased from Promega (Cat# G4000). The normal Vero cell line was purchased from ATCC. Normal Vero cells were cultured with EMEM medium plus 10% FBS. In total, 100 µg/mL penicillin and 100 µg/mL streptomycin were added to the culture media.
The test compounds (100 nL) and staurosporine (25 nL) were delivered from the source plate to the wells of 384-well cell culture plates by Echo 550 Liquid Handler. […] MTT Dye Solution (8 µL) was added to each well, and the plates were incubated at 37 °C in a CO2 incubator for 6 h. After incubation, the formazan was produced in the cells. Solubilization/Stop Solution (30 µL) was added to each well and the plates were incubated for another 1 h at 37 °C in a CO2 incubator to dissolve the formazan crystals. […] The IC50 curves were plotted, and the IC50 values were calculated using the GraphPad Prism 4 program based on a sigmoidal dose–response equation.

Where [8] appears, read: read-out: Residual activity of MAO-B before dialysis.

Usually Ki stands for the equilibrium dissociation constant of an inhibitor or competing ligand from its target. The term IC50 denotes the concentration that inhibits the measured activity by half.

Where two headings read alike, the source gives them in different places.

Sequence of BChE (P81908 whole entry): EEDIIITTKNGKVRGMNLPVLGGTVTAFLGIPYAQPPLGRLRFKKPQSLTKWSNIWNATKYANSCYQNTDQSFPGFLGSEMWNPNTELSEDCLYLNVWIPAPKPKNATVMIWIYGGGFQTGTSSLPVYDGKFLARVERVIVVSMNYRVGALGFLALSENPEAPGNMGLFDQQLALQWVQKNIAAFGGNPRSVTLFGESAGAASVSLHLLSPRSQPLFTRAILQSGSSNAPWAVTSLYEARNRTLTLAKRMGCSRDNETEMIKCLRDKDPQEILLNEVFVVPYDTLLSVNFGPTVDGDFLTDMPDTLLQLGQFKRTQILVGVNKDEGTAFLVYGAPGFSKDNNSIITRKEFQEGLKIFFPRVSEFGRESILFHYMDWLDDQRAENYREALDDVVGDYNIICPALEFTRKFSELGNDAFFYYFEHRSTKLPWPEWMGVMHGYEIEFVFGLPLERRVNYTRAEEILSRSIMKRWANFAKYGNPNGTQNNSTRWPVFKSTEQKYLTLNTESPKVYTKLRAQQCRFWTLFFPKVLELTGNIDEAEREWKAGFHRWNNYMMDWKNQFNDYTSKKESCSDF
T1 sequence (O42275 24-633): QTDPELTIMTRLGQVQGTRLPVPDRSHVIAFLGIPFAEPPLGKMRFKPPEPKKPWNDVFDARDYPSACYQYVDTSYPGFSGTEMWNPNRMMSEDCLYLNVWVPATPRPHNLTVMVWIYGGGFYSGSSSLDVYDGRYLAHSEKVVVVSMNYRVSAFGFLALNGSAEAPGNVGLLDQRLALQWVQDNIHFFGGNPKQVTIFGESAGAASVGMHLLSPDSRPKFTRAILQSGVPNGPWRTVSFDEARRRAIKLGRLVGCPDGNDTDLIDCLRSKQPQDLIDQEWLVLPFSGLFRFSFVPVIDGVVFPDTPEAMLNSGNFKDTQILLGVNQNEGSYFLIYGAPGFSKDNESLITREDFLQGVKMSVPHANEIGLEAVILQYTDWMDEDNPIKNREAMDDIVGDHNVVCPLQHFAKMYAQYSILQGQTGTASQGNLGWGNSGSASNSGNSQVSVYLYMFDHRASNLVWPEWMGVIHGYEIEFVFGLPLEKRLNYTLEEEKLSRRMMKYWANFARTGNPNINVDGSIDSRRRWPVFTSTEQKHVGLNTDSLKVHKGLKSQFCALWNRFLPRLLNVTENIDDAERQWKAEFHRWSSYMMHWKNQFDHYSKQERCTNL

On to `O=C(/C=C/c1ccc(Br)cc1)c1ccc(N2CCOCC2)cc1` [MO9], for which the Ki on AChE [1] was 7.04 µM.

Take `O=C(/C=C/c1ccc(F)cc1)c1ccc(N2CCNCC2)cc1` [PC10]: the “SI (MAO)” value at MAO-B [2] is on record as 48.3.

Consider `O=C(/C=C/c1ccc(C(F)(F)F)cc1)c1ccc(N2CCNCC2)cc1` [PC11], for which the “SI (MAO)” value at MAO-B [2] was 49.2.

Regarding `C#CCN(C)Cc1ccccc1` [Pargyline, reference compound], at MAO-B [3], the “Residual activity of MAO-B after dialysis” value (from here on “Residual activity of MAO-B”) came out at 24.88%.

Regarding `CN(C)c1ccc(/C=C/C(=O)c2ccc(N3CCOCC3)cc2)cc1` [MO5], the Ki on AChE [1] was 2.52 µM.

As for `CN1CCN(c2ccc(C(=O)/C=C/c3cc(C(F)(F)F)cc(C(F)(F)F)c3)cc2)CC1` [Compound 2j, (E/Z)-3-(3,5-bis(trifluoromethyl)phenyl)-1-(4-(4-methylpiperazin-1-yl)phenyl)prop-2-en-1-one], the remaining activity at 10 µM at MAO-A (10 μM compound) was determined as 97.1 ± 4.04%; on MAO-B [4], 67.8 ± 5.36%; at AChE [5] (mean ± SD), 57.1 ± 5.39%; on BChE it was 86 ± 1.04%. Besides, the IC50 is greater than 40 µM against MAO-A and 15.7 ± 1.17 µM against MAO-B [4]. On MAO-B [4], the “SI (MAO)” value is given as 2.55. In addition, the “SI (ChE)” value at AChE [5] is given as greater than 2.60.

On to `CN1CCN(c2ccc(C(=O)/C=C/c3ccc(F)c(C(F)(F)F)c3)cc2)CC1` [Compound 2k, (E)-3-(4-fluoro-3-(trifluoromethyl)phenyl)-1-(4-(4-methylpiperazin-1-yl)phenyl)prop-2-en-1-one], for which the remaining activity at 10 µM on MAO-A (10 μM compound) turned out to be 96.4 ± 3.03%; at AChE [5] (mean ± SD), 46.9 ± 2.58%; at BChE it was 61.8 ± 5.54%. On MAO-A, this compound yielded an IC50 greater than 40 µM. Further, the “Inhibition pattern for AChE” value on AChE [6] is on record as “mixed type”. Moreover, the “Residual activity of MAO-B” value at MAO-B [3] came out at 80.26%. The “Reversibility of MAO-B inhibition” value on MAO-B [3] (dialysis method) was “reversible”. Further, the remaining activity at 1.16 µM at MAO-B [3] (setting [8]) was determined as 14.6%. The compound also came in with a half-maximal inhibitory concentration (IC50) at 72 h in [7] of 19.9 µM.

Turning to `CN1CCN(c2ccc(C(=O)/C=C/c3cc(Br)ccc3F)cc2)CC1` [Compound 2n, (E)-3-(5-bromo-2-fluorophenyl)-1-(4-(4-methylpiperazin-1-yl)phenyl)prop-2-en-1-one], the IC50 at AChE [5] (mean ± SD) was 4.32 ± 0.39 µM. In addition, at BChE (10 μM compound, mean ± SD), the “Residual Activities at 10 μM (%) BChE” value is listed as 43.21 ± 2.88%. The “Inhibition pattern for AChE” value on AChE [6] is “mixed type”. In [7], this compound yielded an IC50 at 72 h of 62 µM.

Turning to `CN1CCN(c2ccc(C(=O)/C=C/c3ccc(C(F)(F)F)cc3)cc2)CC1` [Compound 2b, (E)-1-(4-(4-methylpiperazin-1-yl)phenyl)-3-(4-(trifluoromethyl)phenyl)prop-2-en-1-one], the “Residual Activities at 10 μM (%) MAO-A” value on MAO-A (10 μM compound) amounted to 88.19 ± 6.87%. Moreover, the IC50 against MAO-A was greater than 40 µM; against MAO-B [4], 3.1 ± 0.04 µM. In addition, the remaining activity at 10 µM was determined as 21 ± 4.02% on MAO-B [4], 19 ± 0.55% on AChE [5] (mean ± SD) and 58.5 ± 1.38% at BChE. In addition, the “SI (MAO)” value at MAO-B [4] came to 12.90. The “SI (ChE)” value on AChE [5] worked out at 5.92.

Regarding `NCCNC(=O)c1ccc(Cl)cn1` [Lazabemide, reference compound], the “Residual activity of MAO-B” value on MAO-B [3] is 98.78%. The remaining activity at 0.22 µM at MAO-B [3] (setting [8]) was 20.5%.

Take `CN1CCN(c2ccc(C(=O)/C=C/c3ccc(F)cc3F)cc2)CC1` [Compound 2q, (E)-3-(2,4-difluorophenyl)-1-(4-(4-methylpiperazin-1-yl)phenyl)prop-2-en-1-one]: the remaining activity at 10 µM at MAO-A (10 μM compound) is 72.7 ± 3.31%; on MAO-B [4], 13.1 ± 2.06%; at AChE [5] (mean ± SD), 33.78 ± 0.27%; at BChE, 55.3 ± 0.68%. Moreover, the IC50 at MAO-A was found to be 16.5 ± 1.75 µM; on MAO-B [4], 3.03 ± 0.13 µM. Besides, the “SI (MAO)” value on MAO-B [4] was 5.45. Moreover, the “SI (ChE)” value on AChE [5] stood at 1.71.

Values taken from publication PMC9860728, “Identification of New N-methyl-piperazine Chalcones as Dual MAO-B/AChE Inhibitors” (Pharmaceuticals, 2023).
